Legend:
B16 [1] = experiment: In vitro inhibitory activity against B16 murine melanoma cells; b = inactive until a maximum tested concentration of […]; format: functional, cell-based, Mus musculus
HL-60 [2] = experiment: In vitro inhibitory activity against HL-60 human promyelocytic leukemia cells; b = inactive until a maximum tested concentration of […]; format: functional, cell-based
L1210 [3] = experiment: In vitro inhibitory activity against L1210 murine lymphocytic leukemia cells; b = inactive until a maximum tested concentration of […]; format: functional, cell-based, Mus musculus
P388 [4] = experiment: In vitro inhibitory activity against P388 murine lymphocytic leukemia cells; b = inactive until a maximum tested concentration of 2.5(10e-4) M
B16 [5] = experiment: In vitro inhibitory activity against B16 murine melanoma cells; format: functional, cell-based; conditions: Mus musculus
HL-60 [6] = experiment: In vitro inhibitory activity against HL-60 human promyelocytic leukemia cells; format: functional, cell-based
L1210 [7] = experiment: In vitro inhibitory activity against L1210 murine lymphocytic leukemia cells; format: functional, cell-based; conditions: Mus musculus
P388 [8] = experiment: In vitro inhibitory activity against P388 murine lymphocytic leukemia cells; format: functional, cell-based; conditions: Mus musculus
HL-60 [9] = experiment: In vitro inhibitory activity against HL-60 human promyelocytic leukemia cells until a maximum concentration of 4*(10e-3) M; a = inactive until a maximum tested concentration of 4*(10e-3) M; format: functional, cell-based
L1210 [10] = experiment: In vitro inhibitory activity against L1210 murine lymphocytic leukemia cells; a = inactive until a maximum tested concentration of 4*(10e-3) M; format: functional, cell-based, Mus musculus
P388 [11] = experiment: In vitro inhibitory activity against P388 murine lymphocytic leukemia cells; a = inactive until a maximum tested concentration of 4*(10e-3) M; format: functional, cell-based, Mus musculus

Compound | IC50 (B16 [1]) | IC50 (HL-60 [2]) | IC50 (L1210 [3]) | IC50 (P388 [4]) | IC50 (B16 [5]) | IC50 (HL-60 [6]) | IC50 (L1210 [7]) | IC50 (P388 [8]) | IC50 (HL-60 [9]) | IC50 (L1210 [10]) | IC50 (P388 [11])
NC(=O)c1nc(-c2ccc(CO)o2)oc1N | Inactive until max test conc 2.5x10^-4M | Inactive until max test conc 2.5x10^-4M | Inactive until max test conc 2.5x10^-4M | Inactive until max test conc 2.5x10^-4M |  |  |  |  |  |  | 
NC(=O)c1csc([C@@H]2O[C@H](CO)[C@@H](O)[C@H]2O)n1 [TIAZOFURIN] |  |  |  |  | 16.2 µM | 6.1 µM | 6.2 µM | 16.7 µM |  |  | 
NC(=O)c1coc([C@@H]2O[C@H](CO)[C@@H](O)[C@H]2O)n1 |  |  |  |  | 3020 µM |  |  |  | Inactive until max test conc 4x10^-3M | Inactive until max test conc 4x10^-3M | Inactive until max test conc 4x10^-3M
NC(=O)c1coc(-c2ccc(CO)o2)n1 | Inactive until max test conc 2.5x10^-4M | Inactive until max test conc 2.5x10^-4M | Inactive until max test conc 2.5x10^-4M | Inactive until max test conc 2.5x10^-4M |  |  |  |  |  |  | 

Source: ChEMBL document CHEMBL1125069, “Synthesis and antitumor activity of 2-beta-D-ribofuranosyloxazole-4-carboxamide (oxazofurin)” (J Med Chem, 1990)
